Laboratory results from patent publication US12161669B2, “Compositions and methods for cell targeting therapies” (UMC UTRECHT HOLDING B.V., priority 2017, dated 2024).

What was measured:
Format in all cases: cell-based
[1] = test system: CD277; test: dSTORM super-resolution imaging of CD277 clusters on HEK293FT cells; conditions: 100 uM pamidronate vs medium, DBSCAN
Description: HEK293FT cells were plated in eight-well Lab-Tek chambers to adhere and treated with 100 uM pamidronate overnight. For super-resolution imaging, cells were labeled with AF647-CD277 at RT. After labeling, cells were washed with PBS and fixed with 4% PFA and 0.2% gluteraldehyde for 1-2 h. Prior to super-resolution imaging, 200 μL of fresh SRB (Super-resolution buffer: 50 mM Tris, 10 mM NaCl, 10% glucose, 168.8 U/mL glucose oxidase, 1404 U/mL catalase, 10 mM cysteamine hydrochloride, pH 8.0) was added to the well. dSTORM imaging was performed using an inverted microscope (IX71; Olympus America) equipped with an oil-immersion objective 1.45-NA total internal reflection fluorescence objective (U-APO 150×; Olympus America). […]
dSTORM images were analyzed and reconstructed with custom-built MATLAB functions as described previously (Smith et al 2010, Nat Methods: Huang et al 2011, Biomed Opt Express). […]
Finally, in order to understand whether the enhanced recruitment of low affinity CTE-C13 TCR in the synapse was a result of changes in CD277 clustering due to the PAM treatment, direct stochastic optical reconstruction microscopy (dSTORM), a localization-based super-resolution imaging technique that provides ˜20 nm resolution was performed. […] To quantify the images, a density-based spatial clustering application (DBSCAN) was utilized. […]

[2] = test system: RhoB and CD277; test: Flow cytometry FRET of RhoB-CD277 association in HEK 293 cells; conditions: ABP treated vs untreated
Description: To study association of RhoB and BTN3 molecules, cells were permeabilized by using Permeabilization solution 2 (BD), then blocked with PBS containing 50% Human serum and labeled with rabbit polyclonal anti-RhoB antibody (AbCam). After washing with PBS, samples were labeled with Alexa594-conjugated Goat anti-Rabbit IgG (acceptor) (Jackson ImmunoResearch) and CD277-PE (donor) (BT3.1, Biollegend), respectively. The donor fluorescence was measured using a FACS Canto-II flow cytometer (BD) where donor fluorescence of the double-labeled samples was compared with that of samples labeled only with donor antibody. FRET efficiency was calculated from the fractional decrease of the donor fluorescence in the presence of the acceptor.

[3] = test system: RhoB; test: Intracellular RhoB distribution in human dendritic cells; conditions: human dendritic cells treated with ABP
Description: For intracellular immunofluorescence staining of RhoB, cells were treated with pamidronate overnight (where indicated) and were allowed to attach onto coverslips precoated with poly-Llysine (Sigma-Aldrich). Cells were subsequently permeabilized with Permeabilizing solution 2 (BD), blocked with blocking serum (50% pooled normal human serum in PBS), and stained with a rabbit polyclonal anti-RhoB antibody (AbCam) followed by a secondary Goat anti-Rabbit IgG Alexa Fluor 488-conjugated antibody (Jackson ImmunoResearch). Cells were washed with blocking serum, fixed with 4% paraformaldehyde, stained with DAPI (where indicated), and mounted onto microscopy slides using Mowiol. Images were acquired using a Zeiss confocal laser scanning microscope LSM 700. Ratios between nuclear and extranuclear signal of RhoB was determined using Volocity software (PerkinElmer) or Image J software, where DAPI staining was used, when available, to mark nuclei.

[4] = test system: CD277; test: Flow cytometry FRET of CD277 homodimerization in HEK 293 cells; conditions: medium vs ABP
Description: In order to determine homodimerization of CD277 molecules, cells were co-stained with equal amount of PE-conjugated anti-CD277 (donor) and […]680-conjugated anti-CD277 (acceptor) and samples were measured using a FACS Canto-II flow cytometer (BD). FRET efficiency was calculated with equations according to Sebestyen and colleagues (Sebestyen et al., 2002) where donor fluorescence was excited at 488 nm and detected at 576±26 nm, acceptor fluorescence was excited at 635 nm and detected at 780±60 nm, whereas FRET intensity was excited at 488 nm and detected at 780±60 nm. Correction factors for the spectral overlap between the different fluorescence channels were obtained from data measured on unlabeled and single-labeled cells.

SMILES: NCCC(O)(P(=O)(O)O)P(=O)(O)O [pamidronate]
- CD277 localization cluster size, density or number [1]: did not dramatically change
- close association between RhoB and CD277 (FRET efficiency) [2]: increased markedly
- RhoB exclusion from the nucleus [3]: excluded from the nucleus in human
- pairing of CD277 molecules (homodimer FRET) [4]: insensitive
